Results reported in patent US20200305435A1, “SYNERGISTIC COMBINATION OF BIOCIDES” (LONZA LLC, priority 2016, published 2020).

Assays:
Assay in all cases: Minimum inhibitory concentration, microtitre plate doubling dilutions
Type in all cases: cell-based
Aspergillus brasiliensis = details: biocide alone, visual growth after 48 hours at 25° C., read-out: MIC versus organism A.b
Description: (§1) Fungi were grown on malt agar for 7 days at 25° C. to form a mycelial mat and the spore suspension harvested using 10 ml physiological saline (0.85% (w/v) NaCl). This was used as an inoculum as above. The presence or absence of growth was determined by visual inspection after 48 hours incubation at 25° C.

C. albicans = details: Candida albicans; biocide alone; read-out: MIC versus organism C.a
Description: as §1

Escherichia coli = details: biocide alone, visual growth after 24 hours at 37° C., read-out: MIC versus organism E.c
Description: (§2) Bacteria were grown to stationary phase (18 h) in nutrient broth (approximately 10^9 organisms per ml). A 0.1% (v/v) inoculum was used to seed fresh medium and 100 μl of this was added to each well of a microtitre plate, except for the first well which contained 200 μl. Using doubling dilutions, the concentration of each antimicrobial was varied in each well along the ordinate axis. The presence or absence of growth was determined by visual inspection after 24 hours incubation at 37° C.

Ps.a = details: Pseudomonas aeruginosa; biocide alone; read-out: MIC versus organism Ps.a
Description: as §2

Staphylococcus aureus = details: biocide alone, visual growth after 24 hours at 37° C., read-out: MIC versus organism S.a
Description: as §2

N=C(NCCCCCCNC(=N)NC(=N)Nc1ccc(Cl)cc1)NC(=N)Nc1ccc(Cl)cc1 [Spectradyne, Chlorhexidine gluconate]
MIC (Aspergillus brasiliensis): 62.5 µg/mL | MIC (C. albicans): 16 µg/mL | MIC (Escherichia coli): 2 µg/mL | MIC (Ps.a): 4 µg/mL | MIC (Staphylococcus aureus): 1 µg/mL
